Data taken from ChEMBL document CHEMBL1201862, “PubChem BioAssay data set” (2004).
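Compound exposure: 48 hours, 5 concentrations, 96-well plates. GI50: concentration for 50% inhibition of growth.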 Calls of active or inactive are those of the source. Cut-off read from the data, not from the text of the source: active = GI50 up to about 1.1 µM and inactive = higher.

Tests used:
Test in all cases: NCI tumour cell line growth inhibition, 48 h
[1] = test system: A549
[2] = test system: ACHN
[3] = test system: EKVX
[4] = test system: HCT-116
[5] = test system: HL-60
[6] = test system: K562
[7] = test system: KM12
[8] = test system: LOX IMVI
[9] = test system: M14
[10] = test system: MCF7
[11] = test system: MDA-MB-231
[12] = test system: MOLT-4
[13] = test system: NCI-H226
[14] = test system: NCI/ADR-RES
[15] = test system: SN12C
[16] = test system: SR
[17] = test system: T47D
[18] = test system: UACC-257
[19] = test system: UACC-62
[20] = test system: UO-31

Compound | GI50 [1] | GI50 [2] | GI50 [3] | GI50 [4] | GI50 [5] | GI50 [6] | GI50 [7] | GI50 [8] | GI50 [9] | GI50 [10] | GI50 [11] | GI50 [12] | GI50 [13] | GI50 [14] | GI50 [15] | GI50 [16] | GI50 [17] | GI50 [18] | GI50 [19] | GI50 [20]
Cc1ccc(Nc2n[nH]c(NS(=O)(=O)c3cc(C)c(Cl)cc3S)n2)cc1 | > 100 µM (inactive) | > 100 µM (inactive) | > 100 µM (inactive) | > 100 µM (inactive) | > 100 µM (inactive) | > 100 µM (inactive) | > 100 µM (inactive) | > 100 µM (inactive) | > 100 µM (inactive) | > 100 µM (inactive) | > 100 µM (inactive) | > 100 µM (inactive) | > 100 µM (inactive) | > 100 µM (inactive) | > 100 µM (inactive) | > 100 µM (inactive) | > 100 µM (inactive) | > 100 µM (inactive) | > 100 µM (inactive) | > 100 µM (inactive)
O=S1(=O)CCN(c2ccccc2CC(c2c[nH]c3ccccc23)c2c[nH]c3ccccc23)CC1 | 8.41 µM (inactive) | 5.04 µM (inactive) | 8.49 µM (inactive) | 4.47 µM (inactive) | 1.12 µM (active) | 3.08 µM (inactive) | 3.9 µM (inactive) | 3.57 µM (inactive) | 4.35 µM (inactive) | 3.66 µM (inactive) | 6.92 µM (inactive) | 2.33 µM (inactive) | 12.7 µM (inactive) | 6.62 µM (inactive) | 5.02 µM (inactive) | 3.08 µM (inactive) | 6.35 µM (inactive) | 5.15 µM (inactive) | 8.99 µM (inactive) | 7.41 µM (inactive)
C=CC(=O)N1C/C(=C\c2ccc([N+](=O)[O-])cc2)C(=O)/C(=C/c2ccc([N+](=O)[O-])cc2)C1 | 0.427 µM (active) | 0.16 µM (active) | 0.243 µM (active) | < 0.017 µM (active) | > 100 µM (inactive) | 0.0982 µM (active) | 0.175 µM (active) | < 0.0179 µM (active) | 0.19 µM (active) | < 0.0243 µM (active) | 0.161 µM (active) | 0.0791 µM (active) | 0.2 µM (active) | 0.258 µM (active) | 0.195 µM (active) | 0.289 µM (active) | 0.419 µM (active) | 0.794 µM (active) | 0.21 µM (active) | 0.147 µM (active)
CC1(C)Oc2ccccc2OC1O (stereo not given) | > 100 µM (inactive) | > 100 µM (inactive) | > 100 µM (inactive) | > 100 µM (inactive) | > 100 µM (inactive) | > 100 µM (inactive) | > 100 µM (inactive) | > 100 µM (inactive) | > 100 µM (inactive) | > 100 µM (inactive) | > 100 µM (inactive) | > 100 µM (inactive) | > 100 µM (inactive) | > 100 µM (inactive) | > 100 µM (inactive) | > 100 µM (inactive) | > 100 µM (inactive) | > 100 µM (inactive) | > 100 µM (inactive) | > 100 µM (inactive)
Cc1ccc(S(=O)(=O)NN=C2CCCCCCCCCCC2)cc1 | > 100 µM (inactive) | > 100 µM (inactive) | > 100 µM (inactive) | > 100 µM (inactive) | > 100 µM (inactive) | > 100 µM (inactive) | > 100 µM (inactive) | > 100 µM (inactive) | > 100 µM (inactive) | > 100 µM (inactive) | > 100 µM (inactive) | > 100 µM (inactive) | 38.4 µM (inactive) | > 100 µM (inactive) | > 100 µM (inactive) | > 100 µM (inactive) | > 100 µM (inactive) | > 100 µM (inactive) | > 100 µM (inactive) | > 100 µM (inactive)
Cc1ccc([N+](=O)[O-])cc1S(=O)(=O)Nc1ccc(C(=O)/C=C/c2ccccc2)cc1 | 23.3 µM (inactive) | 13.2 µM (inactive) | 18 µM (inactive) | 15.7 µM (inactive) | 25.3 µM (inactive) | 4.79 µM (inactive) | 16.7 µM (inactive) | 19 µM (inactive) | 20 µM (inactive) | 10.1 µM (inactive) | 16.9 µM (inactive) | 4.51 µM (inactive) | 28.6 µM (inactive) | 22 µM (inactive) | 19.8 µM (inactive) | 22.1 µM (inactive) | 16.3 µM (inactive) | 17.3 µM (inactive) | 13.2 µM (inactive) | 18.4 µM (inactive)
